Laboratory results reported in patent US12479879B2, “Method for preparing disodium 5′-guanylate heptahydrate crystal” (CJ CHEILJEDANG CORPORATION, priority 2019, dated 2025).
Converted amounts (≈) assume the structure as drawn.

Assay: Solubility of 5′-guanylic acid in aqueous sodium chloride solutions (saturated mixed solution, supernatant concentration)
Settings: for Concentration of 5′-Guanylic acid in mixed solution: 25° C.; for 5′-Guanylic acid concentration (g/L) in mixed solution: 40° C.; for solubility thermodynamic: aqueous sodium chloride solution, saline or isotonic
[1] = sodium chloride concentration 300 g/L, supernatant of saturated solution
[2] = sodium chloride concentration 310 g/L, supernatant of saturated solution
[3] = sodium chloride concentration 350 g/L, supernatant of saturated solution
[4] = sodium chloride concentration 360 g/L, supernatant of saturated solution
[5] = sodium chloride concentration 400 g/L, sodium chloride crystals precipitated

Procedure: With the aqueous 5′-guanylic acid solution added to different concentrations of aqueous sodium chloride solutions at temperature 40° C. and 25° C., the solubility of 5′-guanylic acid was examined.
Specifically, the aqueous 5′-guanylic acid solution was sufficiently dissolved in each of the aqueous sodium chloride solutions at 40° C. and 25° C., respectively, to prepare saturated solutions. As a result, 160 g/L to 360 g/L saturated solution of sodium chloride were prepared. […] Then, the concentrations (g/L) of 5′-guanylic acid in supernatants obtained by centrifuging each of the saturated solutions, i.e., the mixed solutions were measured.

Nc1nc2c(ncn2[C@@H]2O[C@H](COP(=O)(O)O)[C@@H](O)[C@H]2O)c(=O)[nH]1 [5′-Guanylic acid, 5′-guanylic acid]
Concentration of 5′-Guanylic acid in mixed solution [1]: 18100 µg/mL | Concentration of 5′-Guanylic acid in mixed solution [2]: 18200 µg/mL | Concentration of 5′-Guanylic acid in mixed solution [3]: 18200 µg/mL | Concentration of 5′-Guanylic acid in mixed solution [4]: 18200 µg/mL | Concentration of 5′-Guanylic acid in mixed solution [5]: 18300 µg/mL | 5′-Guanylic acid concentration (g/L) in mixed solution [1]: 49.9 g/L | 5′-Guanylic acid concentration (g/L) in mixed solution [2]: 49.5 g/L | 5′-Guanylic acid concentration (g/L) in mixed solution [3]: 48.9 g/L | 5′-Guanylic acid concentration (g/L) in mixed solution [4]: 49.8 g/L | 5′-Guanylic acid concentration (g/L) in mixed solution [5]: 49.6 g/L | solubility thermodynamic (25 °C, Concentration of 5′-Guanylic acid in mixed solution (g/L), sodium chloride concentration 160 g/L, supernatant of saturated solution): 40.1 mg/mL (≈ 110 mM) | solubility thermodynamic (25 °C, Concentration of 5′-Guanylic acid in mixed solution (g/L), sodium chloride concentration 200 g/L, supernatant of saturated solution): 26.4 mg/mL (≈ 72.7 mM) | solubility thermodynamic (25 °C, Concentration of 5′-Guanylic acid in mixed solution (g/L), sodium chloride concentration 230 g/L, supernatant of saturated solution): 22.2 mg/mL (≈ 61.1 mM) | solubility thermodynamic (25 °C, Concentration of 5′-Guanylic acid in mixed solution (g/L), sodium chloride concentration 280 g/L, supernatant of saturated solution): 19.2 mg/mL (≈ 52.9 mM) | solubility thermodynamic (25 °C, Concentration of 5′-Guanylic acid in mixed solution (g/L), sodium chloride concentration 420 g/L, sodium chloride crystals precipitated): 18.2 mg/mL (≈ 50.1 mM) | solubility thermodynamic (40 °C, 5′-Guanylic acid concentration (g/L) in mixed solution, sodium chloride concentration 160 g/L, supernatant of saturated solution): 86.5 mg/mL (≈ 238 mM) | solubility thermodynamic (40 °C, 5′-Guanylic acid concentration (g/L) in mixed solution, sodium chloride concentration 200 g/L, supernatant of saturated solution): 62.7 mg/mL (≈ 173 mM) | solubility thermodynamic (40 °C, 5′-Guanylic acid concentration (g/L) in mixed solution, sodium chloride concentration 230 g/L, supernatant of saturated solution): 57.1 mg/mL (≈ 157 mM) | solubility thermodynamic (40 °C, 5′-Guanylic acid concentration (g/L) in mixed solution, sodium chloride concentration 280 g/L, supernatant of saturated solution): 50.1 mg/mL (≈ 138 mM) | solubility thermodynamic (40 °C, 5′-Guanylic acid concentration (g/L) in mixed solution, sodium chloride concentration higher than 400 g/L, sodium chloride crystals precipitated): 48.7 mg/mL (≈ 134 mM)
